Source: ChEMBL document CHEMBL4651402, “Screening of ~5500 FDA-approved drugs and clinical candidates for anti-SARS-CoV-2 activity” (2021)
Peptide text beside a SMILES is read from it.

Test system: SARS-CoV-2
Experiment: microbe, parasite or virus in culture
Details: Severe acute respiratory syndrome coronavirus 2, Vero C1008, 48 h

Row | SMILES | IC50 [µM] | IC50 (read-out: pIC50 (converted)) [µM]
1 | COc1ccc(Cc2nccc3cc(OC)c(OC)cc23)cc1OC [PAPAVERINE] | > 20 | > 20
2 | C=C1[C@@H](C)[C@H]2[C@H](Cc3ccccc3)NC(=O)[C@]23OC(=O)/C=C\[C@H](O)CCC[C@@H](C)C/C=C\[C@H]3[C@@H]1O | > 20 | > 20
3 | CC(C)CC(=O)N[C@H](C(=O)N[C@H](C(=O)N[C@@H](CC(C)C)[C@@H](O)CC(=O)N[C@@H](C)C(=O)N[C@@H](CC(C)C)[C@@H](O)CC(=O)O)C(C)C)C(C)C [PEPSTATIN] | > 20 | > 20
4 | CCOC(=O)C1=C(CN2CCOCC2)NC(c2nccs2)=N[C@@H]1c1ccc(F)cc1Br | > 20 | > 20
5 | N=C(N)NCCCOc1ccccc1 [GUANOXYFEN] | > 20 | > 20
6 | CN1CCN(c2c(F)cc3c(=O)c(C(=O)O)cn4c3c2OCN4C)CC1 [MARBOFLOXACIN] | > 20 | > 20
7 | O=c1[nH]c2ccccc2n1C1CCN(CCOc2ccccc2)CC1 [OXIPEROMIDE] | > 20 | > 20
8 | COC(=O)[C@H](c1ccccc1)N1CCC(c2ccc(NC(=O)c3ccccc3-c3ccc(C(F)(F)F)cc3)cc2)CC1 [USISTAPIDE] | > 20 | > 20
9 | COC(=O)C1=C(C)NC(C)=C(C(=O)OCCCN2CCC(c3ccccc3)(c3ccccc3)CC2)[C@@H]1c1cccc([N+](=O)[O-])c1 [DEXNIGULDIPINE] | > 20 | > 20
10 | O=C(O)C1=CC(=C(c2ccc(O)c(C(=O)O)c2)c2ccc(O)c(C(=O)O)c2)C=CC1=O [AURINTRICARBOXYLIC ACID] | > 20 | > 20
11 | N[C@@H](CCC(=O)N[C@@H](Cc1c[nH]c2ccccc12)C(=O)O)C(=O)O | > 20 | > 20
12 | CCCNC(C)C(=O)Nc1c(C)csc1C(=O)OC (stereo not given) [ARTICAINE] | > 20 | > 20
13 | NCCS(=O)(=O)O [TAURINE] | > 20 | > 20
14 | COc1ccc2c(OC3CC4C(=O)NC5(C(=O)NS(=O)(=O)C6CC6)CC5/C=C\CCCCN(C)C(=O)C4C3)cc(-c3nc(C(C)C)cs3)nc2c1C (stereo not given) | > 20 | > 20
15 | CON(C)Cc1ccc(O)c2c1C[C@H]1C[C@H]3[C@H](N(C)C)C(O)=C(C(N)=O)C(=O)[C@@]3(O)C(O)=C1C2=O [SARECYCLINE] | > 20 | > 20
16 | C[C@]12C=CC(=O)C=C1CC[C@@H]1[C@@H]2[C@@H](O)C[C@@]2(C)[C@H]1CC[C@]2(O)C(=O)CO [PREDNISOLONE] | > 20 | > 20
17 | COc1cc(N2CCC(N(C)C)CC2)ccc1Nc1ncc(Cl)c(Nc2ccccc2P(C)(C)=O)n1 | > 20 | > 20
18 | Cc1nnc(C(=O)NC(C)(C)c2nc(C(=O)NCc3ccc(F)cc3)c(O)c(=O)n2C)o1 | > 20 | > 20
19 | CC(NCCC(c1ccccc1)c1ccccc1)c1ccccc1 (stereo not given) [FENDILINE] | > 20 | > 20
20 | COc1cc(C)nc(-n2nc(C)cc2OC)n1 [EPIRIZOLE] | > 20 | > 20

Row | SMILES | IC50 [µM] | IC50 (read-out: pIC50 (converted)) [µM]
21 | CCC(=O)NS(=O)(=O)c1ccc(-c2c(-c3ccccc3)noc2C)cc1 [PARECOXIB] | > 20 | > 20
22 | Cc1ccc2c(-c3ccc(F)cc3)nc(=O)n(C(C)C)c2c1 [FLUPROQUAZONE] | > 20 | > 20
23 | NC(=O)c1cccnc1 [NIACINAMIDE] | > 20 | > 20
24 | CN1CCN2c3ncccc3Cc3ccccc3C2C1 (stereo not given) [MIRTAZAPINE] | > 20 | > 20
25 | C/C=C/C[C@@H](C)C(=O)[C@H]1C(=O)N[C@@H](C(C)C)C(=O)N(C)CC(=O)N(C)[C@@H](CC(C)C)C(=O)N[C@@H](C(C)C)C(=O)N(C)[C@@H](CC(C)C)C(=O)N[C@@H](C)C(=O)N[C@H](C)C(=O)N(C)[C@@H](CC(C)C)C(=O)N(C)[C@@H](CC(C)C)C(=O)N(C)[C@@H](C(C)C)C(=O)N1C [VALSPODAR] | > 20 | > 20
26 | N=C(N)NCCC[C@H](NC(=O)c1ccc2ccccc2c1O)C(=O)N1CCC[C@H]1C(N)=O | > 20 | > 20
27 | O=C1CC[C@@](c2ccccc2)(C2CCN(Cc3ccccc3)CC2)C(=O)N1 [DEXETIMIDE] | > 20 | > 20
28 | NC(=O)Cc1cccc(C(=O)c2ccccc2)c1N | > 20 | > 20
29 | O[C@@H]1[C@@H](O)[C@@H](O)CN2CC[C@@H](O)[C@H]12 | > 20 | > 20
30 | C[N+](C)(C)CC(=O)O [BETAINE] | > 20 | > 20
31 | CCN(CC)C(=O)C1(c2ccccc2)CC1CN (stereo not given) | > 20 | > 20
32 | CCCCCCCCCCCCCCCC[N+](C)(C)C [CETRIMONIUM] | > 20 | > 20
33 | Cc1nccn1CC1CCc2c(c3ccccc3n2C)C1=O (stereo not given) [ONDANSETRON] | > 20 | > 20
34 | Clc1ccc(N2CCN(C/C=C/c3ccccc3)CC2)nn1 [LORCINADOL] | > 20 | > 20
35 | Nc1ncnc2c1ncn2[C@@H]1O[C@H](CO)[C@@H](O)[C@H]1O [ADENOSINE] | > 20 | > 20
36 | CCCCCNC(=N)N/N=C/c1c[nH]c2ccc(OC)cc12 [TEGASEROD] | > 20 | > 20
37 | C=CCC1(C(C)C)C(=O)NC(=O)NC1=O [APROBARBITAL] | > 20 | > 20
38 | O=C(CO)CO [DIHYDROXYACETONE] | > 20 | > 20
39 | CN(C)[C@@H]1C(O)=C(C(N)=O)C(=O)[C@@]2(O)C(O)=C3C(=O)c4c(O)ccc(Cl)c4[C@@](C)(O)C3C[C@@H]12 (stereo not given in full) | > 20 | > 20
40 | Cc1[nH]c(=O)c(C#N)cc1-c1ccncc1 [MILRINONE] | > 20 | > 20

Row | SMILES | IC50 [µM] | IC50 (read-out: pIC50 (converted)) [µM]
41 | NC[C@H]1CC[C@H](C(=O)O)CC1 [TRANEXAMIC ACID] | > 20 | > 20
42 | COCCNCc1ccc(-c2cc3nccc(Oc4ccc(NC(=O)C5(C(=O)Nc6ccc(F)cc6)CC5)cc4F)c3s2)nc1 [SITRAVATINIB] | > 20 | > 20
43 | CN(C)CC(CN1c2ccccc2Sc2ccccc21)N(C)C (stereo not given) [AMINOPROMAZINE] | > 20 | > 20
44 | CCCSc1nc(N[C@@H]2C[C@H]2c2ccc(F)c(F)c2)c2nnn([C@@H]3C[C@H](OCCO)[C@@H](O)[C@H]3O)c2n1 [TICAGRELOR] | > 20 | > 20
45 | Cc1c(-c2ccnn2C)cc(C(=O)NCc2ccc(S(C)(=O)=O)cn2)c(=O)n1-c1cccc(C(F)(F)F)c1 | > 20 | > 20
46 | CCC(=O)OC1CCC2C3CCC4=CC(=O)CCC4(C)C3CCC12C (stereo not given) | > 20 | > 20
47 | CCOc1ccc2nccc([C@@H](O)[C@@H]3C[C@@H]4CCN3C[C@@H]4CC)c2c1 [ETHYLHYDROCUPREINE] | > 20 | > 20
48 | Nc1nc(N)c2nc(CNc3ccc(C(=O)N[C@@H](CCC(=O)O)C(=O)O)cc3)cnc2n1 [AMINOPTERIN] | > 20 | > 20
49 | CCOc1cc(N)c([N+](=O)[O-])cc1C(=O)NC1CCN(CC2CC=CCC2)CC1 (stereo not given) [CINITAPRIDE] | > 20 | > 20
50 | CC(=O)C(=O)O [PYRUVATE] | > 20 | > 20
51 | CC(C)Cc1ccc(C(C)C(=O)O)cc1 (stereo not given) [IBUPROFEN] | > 20 | > 20
52 | Cc1ccc(S(=O)(=O)NC(=O)NC2CCCCCCC2)cc1 [GLYOCTAMIDE] | > 20 | > 20
53 | CC(C)C(N)C(=O)NC(Cc1ccc(O)cc1)C(=O)O (stereo not drawn) (H-Val-Tyr-OH; configuration not given here) | > 20 | > 20
54 | C=CCNc1nc(NCC=C)nc(N2CCC(NCC(c3ccc(F)cc3)c3ccc(F)cc3)CC2)n1 | > 20 | > 20
55 | N[C@@H](Cc1c[nH]c2ccccc12)C(=O)O [TRYPTOPHAN] | > 20 | > 20
56 | CCNC(=O)[C@H]1O[C@@H](n2cnc3c(N)nc(C#CC[C@H]4CC[C@H](C(=O)OC)CC4)nc32)[C@H](O)[C@@H]1O [APADENOSON] | > 50.1 | > 50.1
57 | CN(C)CCN(Cc1ccc(Cl)cc1)c1ccccn1 [CHLOROPYRAMINE] | > 20 | > 20
58 | C[C@@H](O)[C@H]1C(=O)N2C(C(=O)O)=C(SCCNC=N)C[C@H]12 [IMIPENEM ANHYDROUS] | > 20 | > 20
59 | O=C(O)c1ccc2[nH]nnc2c1 | > 20 | > 20
60 | NS(=O)(=O)c1cc(C2(O)NC(=O)c3ccccc32)ccc1Cl (stereo not given) [CHLORTHALIDONE] | > 20 | > 20
